Several values for one entry are separate records, joined by “and”; a condition that tells them apart may be missing. Equal values may be shown once.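 A five-concentration, 48-hour dose response in 96-well plates underlies each endpoint, interpolated linearly between surrounding concentrations. GI50 is the concentration that inhibits growth by half. TGI: concentration producing complete growth inhibition.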
Experiments:
Assay in all cases: NCI anticancer screen, dose series, 48 h
[1] = system: SN12C renal
[2] = system: TK-10 renal
[3] = system: HL-60(TB) leukemia
[4] = system: OVCAR-3 ovarian
[5] = system: LOX IMVI melanoma
[6] = system: OVCAR-4 ovarian
[7] = system: UACC-257 melanoma
[8] = system: MDA-MB-435
[9] = system: SF-268 CNS
[10] = system: MALME-3M melanoma

| SMILES | TGI [1] | TGI [2] | TGI [3] | TGI [4] | TGI [5] [µM] | TGI [6] | TGI [7] | TGI [8] | TGI [9] | TGI [10] [µM] | GI50 [1] | GI50 [2] | GI50 [3] | GI50 [4] | GI50 [5] | GI50 [6] | GI50 [7] | GI50 [8] [µM] | GI50 [9] | GI50 [10] |
| --- | --- | --- | --- | --- | --- | --- | --- | --- | --- | --- | --- | --- | --- | --- | --- | --- | --- | --- | --- | --- |
| CCOC(=O)c1ccc2[nH]c(-c3ccc(S(=O)(=O)F)cc3)cc(=O)c2c1 | > 100 µM | > 100 µM | > 100 µM | 50.3 µM | > 100 | > 100 µM | > 100 µM | > 100 µM | > 100 µM | 90.6 | – | – | – | – | – | – | – | – | – | – |
| Cn1cc(-c2ccc3c(Nc4cccc(NC(=O)Nc5cccc(F)c5)c4)ncnc3c2)cn1 | 4.29 µM | 10.2 µM | 28 µM | 3.27 µM | 3.64 | 4.41 µM | 22.5 µM | 2.89 µM | 11.2 µM | 3.79 | 1.6 µM | 2.72 µM | 5.9 µM | 1.51 µM | 1.55 µM | 1.85 µM | 4.5 µM | 1.49 | 1.64 µM | 1.29 µM |
| CCSCC1CC(O)(c2ccccc2)C(c2ccccc2)C(c2ccc(Cl)cc2)O1 (stereo unspecified) | 3.13 µM | 5.4 µM | 8.28 µM | 4.2 µM | 3.05 | 4.35 µM | 3.95 µM | 3.84 µM | 5.56 µM | 3.18 | 1.52 µM | 2.27 µM | 4.08 µM | 1.74 µM | 1.65 µM | 1.66 µM | 1.83 µM | 1.74 | 2.1 µM | 1.58 µM |
| COC(=O)[C@@]12C(=O)C=CC(=O)[C@@H]1C1C(=CC2COC(C)=O)O[C@@H]2OC3(CCCCC3)O[C@H]12 (stereo partly specified) | 29.1 µM | 20.6 µM | > 25.6 µM | 17.1 µM | 24.6 | 19.7 µM | 30.3 µM | 29.8 µM | 23.7 µM | 30.2 | – | – | – | – | – | – | – | – | – | – |
| Cc1ccc([N+](=O)[O-])cc1NC(=O)Nc1cccc(F)c1 | > 100 µM | 17.7 µM | > 100 µM | 11.7 µM | > 100 | 51.9 µM | > 100 µM | > 100 µM | > 100 µM | 51.8 | 5.18 µM | 4.19 µM | 4.02 µM | 3.25 µM | 5.78 µM | 3.96 µM | 4.23 µM | 3.8 | 6.9 µM | 4.66 µM |
| CN(C)CCOc1ccc(-c2nc(-c3ccc4c(c3)CC/C4=N\O)c(-c3ccncc3)[nH]2)cc1 | 8.83 µM and 25.9 µM | 10.1 µM and 10.4 µM | 7.44 µM and 14.5 µM | 8.49 µM and 8.94 µM | 6.46 | 9.74 µM and 37.8 µM | 1.07 µM and 2.74 µM | 5.17 µM and 41.2 µM | 9.05 µM and 15.4 µM | – | 4.68 µM and 9.41 µM | 5.66 µM and 5.27 µM | 2.83 µM and 2.45 µM | 4.42 µM and 4.34 µM | 0.934 µM and 1.51 µM | 4.72 µM and 6.69 µM | 0.0456 µM and 0.0489 µM | – | 4.38 µM and 7.26 µM | 0.00596 µM and 0.0186 µM |
| FC(F)(F)Oc1cccc(-c2cnc3ccc(-c4ccncc4)nn23)c1 | > 100 µM | 9.76 µM | 4.29 µM | 7.43 µM | 10.2 | 11.3 µM | – | 48.9 µM | > 100 µM | > 100 | 1.56 µM | 1.14 µM | 1.82 µM | 1.65 µM | 1.07 µM | 1.4 µM | 2.02 µM | 2.11 | 2.22 µM | 2.35 µM |
| COc1cc2c(cc1O)CC[C@@H]1[C@@H]2CC[C@]2(C)[C@@H](NCCN(C)C)CC[C@@H]12 | 1.48 µM | 0.932 µM | 0.675 µM | 0.475 µM | 0.405 | 0.943 µM | 0.254 µM | 0.133 µM | 0.753 µM | 0.669 | 0.38 µM | 0.467 µM | 0.173 µM | 0.123 µM | 0.11 µM | 0.339 µM | 0.114 µM | 0.0662 | 0.267 µM | 0.19 µM |
| CCNC(=O)[C@@H]1CCCN2C(=O)CC[C@H](NC(=O)[C@H](Cc3ccc(OP(=O)(O)O)cc3)NC(C)=O)C(=O)N12 | > 25 µM | > 25 µM | > 25 µM | > 25 µM | > 25 | > 25 µM | > 25 µM | > 25 µM | > 25 µM | > 25 | > 25 µM | > 25 µM | > 25 µM | > 25 µM | > 25 µM | > 25 µM | > 25 µM | > 25 | > 25 µM | > 25 µM |
| COc1ccc2oc(=O)cc(C(c3ccc[nH]3)c3ccc[nH]3)c2c1 | 15.8 µM | 15.6 µM | – | 0.146 µM | 7.57 | 26.3 µM | 18 µM | 0.485 µM | 16.3 µM | 17.7 | 0.148 µM | 0.155 µM | < 0.0502 µM | 0.0803 µM | 0.104 µM | 0.303 µM | 0.468 µM | 0.208 | 0.129 µM | 0.783 µM |
| COc1ccc(C(=O)c2cc(OC)c(OC)c(OC)c2)cc1 | > 100 µM | > 100 µM | 13.2 µM | 0.283 µM | > 82.2 | > 100 µM | > 100 µM | 0.0424 µM | > 86.8 µM | > 100 | – | – | – | – | – | – | – | – | – | – |
| O=C(Nc1ccc(Cl)c(Cl)c1)c1cccc(NC2=C(Cl)C(=O)N(Cc3ccccc3)C2=O)c1 | > 100 µM | > 100 µM | > 100 µM | > 100 µM | > 100 | > 100 µM | > 100 µM | > 100 µM | > 100 µM | > 100 | 52.9 µM | > 100 µM | 45.8 µM | 24.6 µM | 27 µM | 48.3 µM | 41.1 µM | 35.7 | 34.9 µM | 62.1 µM |
| O=C[C@@H](CO)O[C@H](C=O)c1c[nH]c(=O)[nH]c1=O | 551 µM | 355 µM | 376 µM | 309 µM | 886 | 375 µM | 657 µM | 155 µM | 427 µM | 253 | – | – | – | – | – | – | – | – | – | – |
| Cc1ccc(S(=O)(=O)OC2CCN(C)CC2)cc1 | > 100 µM | > 100 µM | 37.3 µM | > 100 µM | > 100 | > 100 µM | > 100 µM | > 100 µM | > 100 µM | 37.9 | – | – | – | – | – | – | – | – | – | – |
| CC[C@]12CCCN3CCc4c(n(c5ccccc45)C(=O)C1)[C@@H]32 | > 100 µM | > 90 µM | 8.51 µM | 5.81 µM | > 100 | > 76.3 µM | > 100 µM | 4.41 µM | > 75 µM | > 67.9 | – | – | – | – | – | – | – | – | – | – |
